Patent US20020077296A1, “High-throughput screening method” (priority 2000, published 2002)
Like-named read-outs stand apart in the source and are kept apart here. One block for each compound: values may come before it.

Tests used:
[1] = molecular target: T1, ROKa/ROK-II, active Cat (Rattus norvegicus, UniProt Q62868); experiment: phosphorylation assay with ROKa/ROK-II, active Cat (Upstate) under a similar condition; type: biochemical
T1 construct: purchased Upstate
Method: (§1) ATP/30 μl. […] The reaction time was four hours.
(§2) SPA Multiscreen method was used for the estimation of the plate.

[2] = molecular target: T2, Rho-kinase (Bos taurus, UniProt Q28021); experiment: antibody plate assay: Rho-kinase immobilized from bovine brain extract, phosphorylation of Histone HF2A; type: biochemical; conditions: Histone HF2A substrate, [33P]ATP, reaction time four hours
T2 construct: thus detecting the band of Rho-kinase at around 160 kDa; tissue Shiraimatsu; host or cells: bovine brain (cerebral gray matter) extract
Method: After allowed to stand for 1.5 hours at room temperature, the solution was removed, and 200 μl of blocking solution in which Block Ace (DAINIPPON PHARMACEUTICAL) UK-B25 was diluted four times with PBS(−)) was added into the plate, followed by stirring the solution therein. The plate was allowed to stand for additional 1.5 hours at room temperature, washed three times with 200 μl of PBST (0.05% Tween20/PBS(−)), and added with a 0.1 μg/50 μl solution of anti-Rho-kinase antibody in PBS(−).
as §1, §2
The inhibitory activity of these inhibitors was determined based on the radioactivity showing the phosphorylation that was detected in the antibody plate assay system, and compared to those previously reported, so that the plate was estimated in terms of the usefulness in a screening system for discovering inhibitors.

[3] = system: Rho-kinase; experiment: inhibition of the binding of Rho-kinase to anti-Rho-kinase antibody-immobilized plate; parameters: species or system bovine
Method: Fifty μl of the dilution of the rabbit anti-goat IgG/Fc (Nippon Chemi-Con Corp.) in PBS(−) was pipetted into Immunoplate II (Nunc, 442404, High binding capacity) or a fluorescence/luminescence solid assay plate (COSTAR, 3922 white). After allowed to stand for 1.5 hours at room temperature, the solution was removed, and 200 μl of blocking solution in which Block Ace (DAINIPPON PHARMACEUTICAL) UK-B25 was diluted four times with PBS(−)) was added into the plate, followed by stirring the solution therein. The plate was allowed to stand for additional 1.5 hours at room temperature, washed three times with 200 μl of PBST (0.05% Tween20/PBS(−)), and added with a 0.1 μg/50 μl solution of anti-Rho-kinase antibody in PBS(−). After allowed to stand for additional 1.5 hours at room temperature, the plate was washed three times with 200 μl of PBST. Into the plate was placed 50 μl of 1.5 mg/ml bovine brain lysates, and the resultant plate was allowed to stand overnight at 4° C. This was washed twice with 200 μl of PBST, and once with 200 μl of PBS(−) to provide an immobilized plate.
Various concentrations of the antigen peptide used to prepare the anti-Rho-kinase antibody were supplemented to the bovine brain extract, and then Rho-kinase in the extract was immobilized onto the plate under the optimal conditions as found in Example 5. […]

[4] = molecular target: Rho-kinase; conditions: read-out: Ki value; cited from earlier work

T2 sequence (Q28021 whole entry): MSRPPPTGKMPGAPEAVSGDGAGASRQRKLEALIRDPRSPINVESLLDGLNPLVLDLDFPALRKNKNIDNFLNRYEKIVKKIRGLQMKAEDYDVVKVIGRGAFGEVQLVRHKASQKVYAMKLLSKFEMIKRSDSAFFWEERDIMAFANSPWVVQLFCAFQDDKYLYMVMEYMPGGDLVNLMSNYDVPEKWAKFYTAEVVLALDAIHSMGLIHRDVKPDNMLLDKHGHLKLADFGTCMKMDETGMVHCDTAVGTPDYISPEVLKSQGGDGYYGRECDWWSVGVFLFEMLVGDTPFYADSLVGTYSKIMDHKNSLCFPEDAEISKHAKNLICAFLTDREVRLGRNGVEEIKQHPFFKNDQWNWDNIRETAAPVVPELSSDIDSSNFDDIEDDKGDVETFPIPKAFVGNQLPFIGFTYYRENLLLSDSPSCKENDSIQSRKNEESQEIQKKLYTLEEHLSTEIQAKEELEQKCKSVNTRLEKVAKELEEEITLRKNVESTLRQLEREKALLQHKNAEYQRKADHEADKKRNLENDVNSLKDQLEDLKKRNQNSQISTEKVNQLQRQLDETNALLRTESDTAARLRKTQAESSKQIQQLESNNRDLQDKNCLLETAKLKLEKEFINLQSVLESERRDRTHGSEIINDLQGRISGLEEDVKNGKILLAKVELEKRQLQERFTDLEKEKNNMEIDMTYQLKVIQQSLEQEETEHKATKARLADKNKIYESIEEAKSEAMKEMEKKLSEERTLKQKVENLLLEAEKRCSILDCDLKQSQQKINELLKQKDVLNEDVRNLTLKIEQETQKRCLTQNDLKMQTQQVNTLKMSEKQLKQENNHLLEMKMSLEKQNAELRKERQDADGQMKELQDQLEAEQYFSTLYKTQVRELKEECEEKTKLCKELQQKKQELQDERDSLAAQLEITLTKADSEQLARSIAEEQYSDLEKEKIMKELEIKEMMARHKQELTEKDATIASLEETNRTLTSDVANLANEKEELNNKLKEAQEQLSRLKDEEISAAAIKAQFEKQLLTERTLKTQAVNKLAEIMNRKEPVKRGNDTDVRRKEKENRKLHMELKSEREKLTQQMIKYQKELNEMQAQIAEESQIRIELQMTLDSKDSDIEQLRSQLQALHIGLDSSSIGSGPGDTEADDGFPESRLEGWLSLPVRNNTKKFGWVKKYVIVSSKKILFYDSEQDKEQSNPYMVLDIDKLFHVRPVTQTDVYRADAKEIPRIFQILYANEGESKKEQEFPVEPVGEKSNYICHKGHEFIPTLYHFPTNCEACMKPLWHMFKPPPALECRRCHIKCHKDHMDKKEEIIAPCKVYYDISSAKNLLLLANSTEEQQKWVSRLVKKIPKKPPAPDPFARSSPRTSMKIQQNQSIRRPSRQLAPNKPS
T1 sequence (Q62868 11-552 limits assumed): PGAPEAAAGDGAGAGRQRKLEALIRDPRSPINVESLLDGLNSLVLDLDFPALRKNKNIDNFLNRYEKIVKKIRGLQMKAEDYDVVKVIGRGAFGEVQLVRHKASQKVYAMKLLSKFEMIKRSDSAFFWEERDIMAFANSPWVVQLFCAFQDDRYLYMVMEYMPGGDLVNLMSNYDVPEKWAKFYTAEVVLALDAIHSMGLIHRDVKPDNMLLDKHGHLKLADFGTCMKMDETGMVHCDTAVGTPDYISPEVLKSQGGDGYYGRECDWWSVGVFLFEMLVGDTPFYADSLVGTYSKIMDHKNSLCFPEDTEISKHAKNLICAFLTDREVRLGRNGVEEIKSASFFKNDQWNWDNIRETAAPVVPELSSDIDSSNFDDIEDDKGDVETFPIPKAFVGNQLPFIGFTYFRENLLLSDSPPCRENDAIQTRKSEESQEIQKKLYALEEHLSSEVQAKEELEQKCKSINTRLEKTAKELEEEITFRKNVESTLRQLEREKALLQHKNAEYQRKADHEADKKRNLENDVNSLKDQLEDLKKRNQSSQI

IC50 ([1]; similar assay condition, read-out: IC50 value, ROKa/ROK-II active Cat): 11 µM | IC50 ([2]; read-out: IC50 value, bovine brain): 20 µM
Compound: COc1ccc2c(c[n+](C)c3c4cc5c(cc4ccc23)OCO5)c1OC [chelerythrine]

inhibition of the immobilization of Rho-kinase ([3]; 3.5 μM of the peptide): ~100% | IC50 ([3]; peptide supplemented to bovine brain extract, read-out: IC50 value, inhibition of immobilization of Rho-kinase): 350 nM
Compound: IQQNQSIRRPSRQLAPNKPS [antigen peptide, 20 amino acid C-terminal partial peptide of Rho-kinase used to prepare the anti-Rho-kinase antibody]

Compound: C[C@@H](N)[C@H]1CC[C@H](C(=O)Nc2ccncc2)CC1 [Y-27632]
IC50 [1]: 0.79 µM | IC50 ([2]; IC50 value, bovine brain): 0.35 µM | Ki [4]: 140 nM
